Assay [1] deals with primary rat neuronal cultures. As to the kind of experiment: Amyloid beta treatment of neurons and isolation of lipid rafts. Type of assay: cell-based. Here is the method: Rat and human primary cortical neuronal cultures were treated with fibrillar Aβ25-35 or Aβ1-42 for 1-30 min. Lipid rafts were prepared from control untreated and Aβ-treated neuronal cultures by scraping the cells from one 80 cm^2 flask into 2 ml 1% Triton X-100 in 25 mM Mes, pH 6.5 containing protease inhibitors. Cells were disrupted by Dounce homgenization. The homogenate was mixed with 2 ml of 90% sucrose (w/v) in 25 mM Mes, 150 mM NaCl pH 6.5 and placed in a 12 ml centrifuge tube. A 5-35% step sucrose gradient was formed by overlaying the homogenate mix with 4 ml of a 35% (w/v) sucrose solution followed by 4 ml of a 5% (w/v) sucrose solution. This was then centrifuged at 39,000 rpm for 18 hr in a Beckman SW41 rotor. 1 ml fractions were collected from the top of each gradient. The lipid raft fraction partitioned at the interface between the 5% (w/v) sucrose layer and the 35% sucrose (w/v) layer, fractions 4 and 5. Lipid raft fractions were concentrated by mixing the raft fractions (4 and 5) with 10 ml dd H2O and centrifuging at 39,000 rpm for 2 h in a Beckman SW41 rotor. The supernatant was aspirated and the remaining pellet was resuspended in 100 μl of 2× sample buffer. Western blots of lipid raft proteins were probed for antibodies to flotillin and protein loading corrected by scanning densitometry. Tau was detected in lipid rafts by probing western blots of lipid raft proteins using a polyclonal anti-tau antibody (DAKO).

Assay [2] has as its target V5 tagged human tau mutant Y197F (human) (UniProt P10636). As to the kind of experiment: cell-based or functional assay.
The target of assay [3] is V5 tagged human tau mutant Y310F (human) (UniProt P10636). As to the kind of experiment: cell-based or functional assay.
Assay [4] deals with V5 tagged human tau mutant Y394F (human) (UniProt P10636). As to the kind of experiment: cell-based or functional assay.
Assay [5] has as its target V5 tagged human tau mutant Y18F (human) (UniProt P10636). As to the kind of experiment: cell-based or functional assay.
The test system of assay [6] is COS-7 cells transfected with V5 tagged human tau. As to the kind of experiment: Phosphorylation of tyrosine residues in tau in cultured cells treated with pervanadate. The conditions noted are these: 20 minutes, Y394-only mutant and wild-type tau. Type of assay: cell-based. From the text:
In a first set of experiments, COS-7 cells were transiently transfected with V5 tagged human tau longest isoform or with V5 tagged mutants of tau where one tyrosine has been replaced by one phenylalanine (named Y18F, Y29F, Y197F, Y310F and Y394F) constructs. In a second set of experiments, COS-7 cells were transiently transfected with the V5 tagged tau (441) construct or with V5 tagged mutants of tau where only one tyrosine is remaining, the four other tyrosines being replaced by phenyalanine (named Y18-only, Y29-only, Y197-only, Y310-only and Y394-only according to the remaining tyrosine). In order to increase tau tyrosine phosphorylation, cells were treated with the tyrosine phosphatase inhibitor pervanadate for 20 minutes. Cells were harvested in NETF buffer (100 mM NaCl, 2 mM EGTA, 50 mM Tris-Cl pH 7,4 and 50 mM NaF) containing 1% NP-40, 2 mM orthovanadate and protease inhibitors. Samples were precleared with 40 μl of protein G-Sepharose beads, and immunoprecipitations were carried out with monoclonal anti-V5 antibodies preadsorbed on protein G-Sepharose beads. Cells were harvested in NETF lysis buffer containing 1% NP-40 and tau was immunoprecipitated using an anti-V5 antibody. […] Quantification was achieved by scanning the autoradiograms with GS710 Calibrated Imaging Densitometer (Bio-Rad) and measurement of relative optical density with Quantity One 4.0.3 software (Bio-Rad).

Setting [7] is: pre-treatment of neuronal cultures with inhibitor before exposure to Aβ.

Entries after “also recorded” stand apart in the source; their conditions may differ.

As to `CC(C)(C)n1nc(-c2ccc(Cl)cc2)c2c(N)ncnc21` [PP2], the “Aβ-induced increase in tyrosine phosphorylation of lipid raft proteins” value in assay [1] (inhibitor given with Aβ treatment, primary rat neuronal cultures, western blot of lipid rafts) is listed as “abrogated”. Besides, in assay [1] (setting [7]), the “Aβ-induced recruitment of Fyn to lipid rafts” value is recorded as “blocking of the recruitment” and the “Aβ-induced recruitment/partitioning of tau into lipid rafts” value is listed as “abrogated; also recorded: blocking of the recruitment”.

“AblΔXB (a constitutively active form of Abl, with deletion of most of the SH3 domain) (enzyme)”: the tyrosine phosphorylation of immunoprecipitated tau (4G10 Western blot), CHO cells co-transfected with AblΔXB (% of the wild-type control) in assay [2] amounted to 70; in assay [3] it was 70; in assay [4] it was 25.

Turning to “Aβ1-42: fibrillar amyloid β-peptide 1-42 used to treat neurons”, the “tyrosine phosphorylation of neuronal protein components of lipid rafts” value in assay [1] (peptide treatment of primary rat neuronal cultures) is given as “rapid increase”.

As for “Fyn tyrosine kinase (expressed from Fyn cDNA in CHO cells) (from UniProt P06241 1-537) (enzyme)”, the tyrosine phosphorylation of immunoprecipitated tau (4G10 Western blot), CHO cells co-transfected with Fyn (% of the wild-type control) in assay [5] and in assay [3] was 50 in each case.

On to pervanadate, for which the “tyrosine phosphorylation of tau (4G10 western on immunoprecipitated tau)” value in assay [6] is listed as “induces an increase in tyrosine phosphorylation”.
